Source: the supplement of paper PMC10307832

The cell lines below were run with CC1=C(N=C(N=C1N)[C@H](CC(=O)N)NC[C@@H](C(=O)N)N)C(=O)N[C@@H]([C@H](C2=CN=CN2)OC3C(C(C(C(O3)CO)O)O)OC4C(C(C(C(O4)CO)O)OC(=O)N)O)C(=O)N[C@H](C)[C@H]([C@H](C)C(=O)N[C@@H]([C@@H](C)O)C(=O)NCCC5=NC(=CS5)C6=NC(=CS6)C(=O)NCCC[S+](C)C)O [Bleomycin] + O=C(CCCCCCC(=O)Nc1ccccc1)NO [Vorinostat] (partner 1 µM) (assay: relative viability (nuclei count vs DMSO), 5 days (fraction); higher = more cells survive). Details: first compound 0.01 µM; main component drawn.
Outline: (§1)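 Relative viability is defined as nuclei in treated wells over nuclei in vehicle wells. Duplicate plates were run and medians reported. Lung cancer cell lines in 1536-well plates were dosed by pin tool one day after seeding, with one drug or with a fixed anchor-drug dose plus five library-drug doses (not always all listed) in √10 steps, and nuclei were counted after 5 days.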

| Cell Line | relative viability |
| --- | --- |
| NCI-H1993 | 0.669 |
| NCI-H2087 | 0.441 |
| PC-14 | 0.414 |
| LCLC-103H | 0.678 |
| NCI-H596 | 0.479 |
| NCI-H2228 | 0.637 |
| NCI-H2085 | 0.777 |
| HCC-366 | 0.115 |
| NCI-H1666 | 0.786 |
| NCI-H647 | 0.205 |
| LK-2 | 0.232 |
| NCI-H2126 | 0.785 |
| NCI-H2342 | 0.786 |
| SK-MES-1 | 0.839 |
| H3255 | 0.737 |
| COR-L23 | 0.273 |
| COR-L 105 | 0.716 |
| IA-LM | 0.791 |
| LOU-NH91 | 0.718 |
| ChaGo-K-1 | 0.512 |
| NCI-H2170 | 0.639 |
| NCI-H3122 | 1.15 |
| HCC-44 | 0.906 |
| NCI-H1648 | 0.46 |
| HCC-78 | 0.388 |

Same assay, conditions: first compound 0.03162 µM; main component drawn

| Cell Line | relative viability |
| --- | --- |
| NCI-H522 | 0.911 |
| NCI-H838 | 0.41 |
| NCI-H1650 | 0.241 |
| NCI-H1993 | 0.585 |
| NCI-H2087 | 0.76 |
| PC-14 | 0.406 |
| LCLC-103H | 0.625 |
| NCI-H596 | 0.438 |
| NCI-H2228 | 0.557 |
| EMC-BAC-2 | 0.472 |
| NCI-H2085 | 0.721 |
| HCC-366 | 0.135 |
| NCI-H1666 | 0.926 |
| NCI-H647 | 0.132 |
| LK-2 | 0.281 |
| NCI-H2126 | 0.692 |
| NCI-H2342 | 0.735 |
| SK-MES-1 | 0.936 |
| H3255 | 0.891 |
| COR-L23 | 0.392 |
| COR-L 105 | 0.719 |
| IA-LM | 0.802 |
| LOU-NH91 | 0.544 |
| ChaGo-K-1 | 0.526 |
| NCI-H2170 | 0.591 |
| NCI-H3122 | 0.882 |
| HCC-44 | 0.989 |
| NCI-H1648 | 0.324 |
| HCC-78 | 0.362 |

Same assay, conditions: first compound 0.1 µM; main component drawn

| Cell Line | relative viability |
| --- | --- |
| NCI-H522 | 0.739 |
| NCI-H838 | 0.274 |
| NCI-H1650 | 0.22 |
| NCI-H1993 | 0.864 |
| NCI-H2087 | 0.329 |
| PC-14 | 0.198 |
| LCLC-103H | 0.704 |
| NCI-H596 | 0.438 |
| NCI-H2228 | 0.486 |
| EMC-BAC-2 | 0.36 |
| NCI-H2085 | 0.679 |
| HCC-366 | 0.0903 |
| NCI-H1666 | 0.885 |
| NCI-H647 | 0.105 |
| LK-2 | 0.217 |
| NCI-H2126 | 0.771 |
| NCI-H2342 | 0.652 |
| SK-MES-1 | 0.903 |
| H3255 | 0.538 |
| COR-L23 | 0.218 |
| COR-L 105 | 0.617 |
| IA-LM | 0.801 |
| LOU-NH91 | 0.508 |
| ChaGo-K-1 | 0.483 |
| NCI-H2170 | 0.605 |
| NCI-H3122 | 0.823 |
| HCC-44 | 0.733 |
| NCI-H1648 | 0.275 |
| HCC-78 | 0.487 |

Same assay, conditions: first compound 0.3162 µM; main component drawn

| Cell Line | relative viability |
| --- | --- |
| NCI-H522 | 0.525 |
| NCI-H838 | 0.267 |
| NCI-H1650 | 0.146 |
| NCI-H1993 | 0.303 |
| NCI-H2087 | 0.0956 |
| PC-14 | 0.0393 |
| LCLC-103H | 0.654 |
| NCI-H596 | 0.22 |
| NCI-H2228 | 0.17 |
| EMC-BAC-2 | 0.28 |
| NCI-H2085 | 0.378 |
| HCC-366 | 0.0328 |
| NCI-H1666 | 0.652 |
| NCI-H647 | 0.0704 |
| LK-2 | 0.209 |
| NCI-H2126 | 0.442 |
| NCI-H2342 | 0.551 |
| SK-MES-1 | 0.471 |
| H3255 | 0.682 |
| COR-L23 | 0.104 |
| COR-L 105 | 0.435 |
| IA-LM | 0.398 |
| LOU-NH91 | 0.387 |
| ChaGo-K-1 | 0.303 |
| NCI-H2170 | 0.383 |
| NCI-H3122 | 0.517 |
| HCC-44 | 0.459 |
| NCI-H1648 | 0.257 |
| HCC-78 | 0.399 |

Same assay, conditions: first compound 1 µM; main component drawn

| Cell Line | relative viability |
| --- | --- |
| NCI-H522 | 0.374 |
| NCI-H838 | 0.265 |
| NCI-H1650 | 0.169 |
| NCI-H1993 | 0.386 |
| NCI-H2087 | 0.15 |
| PC-14 | 0.0658 |
| LCLC-103H | 0.417 |
| NCI-H596 | 0.293 |
| NCI-H2228 | 0.22 |
| EMC-BAC-2 | 0.18 |
| NCI-H2085 | 0.386 |
| HCC-366 | 0.0275 |
| NCI-H1666 | 0.613 |
| NCI-H647 | 0.0607 |
| LK-2 | 0.195 |
| NCI-H2126 | 0.5 |
| NCI-H2342 | 0.491 |
| SK-MES-1 | 0.235 |
| H3255 | 0.363 |
| COR-L23 | 0.0886 |
| COR-L 105 | 0.486 |
| IA-LM | 0.635 |
| LOU-NH91 | 0.345 |
| ChaGo-K-1 | 0.279 |
| NCI-H2170 | 0.34 |
| NCI-H3122 | 0.334 |
| HCC-44 | 0.383 |
| NCI-H1648 | 0.271 |
| HCC-78 | 0.391 |

The cell lines below were run with COc1cc([C@@H]2c3cc4c(cc3[C@@H](O[C@@H]3O[C@@H]5CO[C@@H](C)O[C@H]5[C@H](O)[C@H]3O)[C@H]3COC(=O)[C@H]23)OCO4)cc(OC)c1O [Etoposide] + Cc1cc(Nc2cc(N3CCN(C)CC3)nc(Sc3ccc(NC(=O)C4CC4)cc3)n2)n[nH]1 [Tozasertib] (partner 0.1 µM) in the same assay as above. Details: first compound 0.01 µM.
Outline: as §1

| Cell Line | relative viability |
| --- | --- |
| NCI-H522 | 0.589 |
| NCI-H1623 | 0.416 |
